The test system of data set [1] is MCF7. Kind of data set: Cytotoxicity against human MCF7 cells assessed inhibition of cell growth incubated for 72 hrs by MTT assay. It is filed as functional, cell-based. The conditions noted are these: MCF7, 72 h. In general terms: Tetrazolium assays rely on reduction of a dye to a coloured formazan, in cell work by metabolically active cells.
Data set [2] in a line: Selectivity index, ratio of IC50 for cytotoxicity against human NHDF cells to IC50 for cytotoxicity against human SW620 cells.
Data set [3] concerns EJ-28. Description: Antiproliferative activity against human EJ-28 cells assessed as reduction in cell viability at 20 uM measured for 72 hrs by MTT assay. It is filed as functional, cell-based.
The nature of data set [4]: Selectivity index, ratio of IC50 for cytotoxicity against human NHDF cells to IC50 for cytotoxicity against human MCF7 cells. It is filed as toxicity, cell-based. Particulars: NHDF cells and MCF7 cells, read-out: Ratio IC50.
For data set [5], the system named is A549. Description: Cytotoxicity against human A549 cells assessed inhibition of cell growth incubated for 72 hrs by MTT assay. It is filed as functional, cell-based. Particulars: A549, 72 h.
Data set [6] can be described thus: Selectivity index, ratio of IC50 for cytotoxicity against human NHDF cells to IC50 for cytotoxicity against human EJ-28 cells.
The nature of data set [7]: Selectivity index, ratio of IC50 for cytotoxicity against human NHDF cells to IC50 for cytotoxicity against human A549 cells. The conditions noted are these: NHDF cells and A549 cells, read-out: Ratio IC50. It is filed as toxicity, cell-based.
The subject of data set [8] is HT-1080. Description: Cytotoxicity against human HT-1080 cells assessed inhibition of cell growth incubated for 72 hrs by MTT assay. It is filed as functional, cell-based. Particulars: HT-1080, 72 h.
Data set [9] is described as follows: Cytotoxicity against human NHDF cells assessed inhibition of cell growth incubated for 72 hrs by MTT assay. It is filed as toxicity, cell-based.
Data set [10] deals with HT-1080. Description: Antiproliferative activity against human HT-1080 cells assessed as reduction in cell viability at 20 uM measured for 72 hrs by MTT assay. It is filed as functional, cell-based.
In data set [11] the test system is MCF7. Kind of data set: Antiproliferative activity against human MCF7 cells assessed as reduction in cell viability at 20 uM measured for 72 hrs by MTT assay. It is filed as functional, cell-based.
Data set [12] deals with SW-620. Description: Cytotoxicity against human SW620 cells assessed inhibition of cell growth incubated for 72 hrs by MTT assay. It is filed as functional, cell-based. The conditions noted are these: SW-620, 72 h.
Data set [13] relates to EJ-28. Kind of data set: Cytotoxicity against human EJ-28 cells assessed inhibition of cell growth incubated for 72 hrs by MTT assay. The conditions noted are these: EJ-28, 72 h. It is filed as functional, cell-based.
The subject of data set [14] is SW-620. Description: Antiproliferative activity against human SW620 cells assessed as reduction in cell viability at 20 uM measured for 72 hrs by MTT assay. It is filed as functional, cell-based.
The subject of data set [15] is A549. Kind of data set: Antiproliferative activity against human A549 cells assessed as reduction in cell viability at 20 uM measured for 72 hrs by MTT assay. It is filed as functional, cell-based.
A short description of data set [16]: Selectivity index, ratio of IC50 for cytotoxicity against human NHDF cells to IC50 for cytotoxicity against human HT-1080 cells.

Structures are written as SMILES. The source made the active and inactive calls. No cut-off for these calls is given here.

One may read the IC50 as the concentration at which inhibition is half-maximal. Higher therefore signals weaker potency. On to `COc1cc(/C=C/c2cc(-c3cc(Cl)ccc3O)n(-c3ccccc3)n2)cc(OC)c1OC`, for which the half-maximal inhibitory concentration (IC50) came to 5.9 µM with MCF7 [1]; 9.4 µM with A549 [5]; 8.9 µM in the data set on HT-1080 [8]; 4.4 µM in the data set on SW-620 [12]; 10.1 µM with EJ-28 [13]. The “Ratio IC50” value in data set [2], in data set [6] and in data set [16] was 3.9 each time. Moreover, the outcome with EJ-28 [3], in the data set on HT-1080 [10], with MCF7 [11], in the data set with SW-620 [14] and in the data set on A549 [15] was Active. Further, the selectivity ratio in data set [4] and in data set [7] was 3.9 in each case. Also, the half-inhibitory concentration (IC50) at 72 h in [9] came out at 39.6 µM.

Turning to `Oc1ccccc1-c1cc(/C=C/c2cccc(Cl)c2)nn1-c1ccccc1`, the IC50 in the data set on MCF7 [1] was found to be 10.9 µM; with A549 [5], 24.3 µM; in the data set with HT-1080 [8] it was 13.8 µM; in the data set on SW-620 [12] it was 11.6 µM; in the data set on EJ-28 [13], 8.9 µM. For the same molecule, the “Ratio IC50” value in data set [2], in [6] and in data set [16] was 1.6 each time. The result with EJ-28 [3], with HT-1080 [10], in the data set with MCF7 [11], in the data set on SW-620 [14] and with A549 [15] was Active. In addition, the selectivity ratio in data set [4] and in data set [7] was 1.6 throughout. The molecule also showed a concentration for half-maximal inhibition (IC50) at 72 h in [9] of 39.4 µM.

For `Oc1ccccc1-c1cc(/C=C/c2ccccc2Cl)nn1-c1ccccc1`, the half-maximal inhibitory concentration (IC50) is 15.3 µM in the data set on MCF7 [1]; 22.4 µM in the data set on A549 [5]; 16.9 µM with HT-1080 [8]; 15.7 µM in the data set on SW-620 [12]; 11.7 µM with EJ-28 [13]. In addition, the “Ratio IC50” value in [2], in data set [6] and in data set [16] was greater than 2.2 throughout. In addition, the result in the data set on EJ-28 [3], in the data set with HT-1080 [10], with MCF7 [11], in the data set with SW-620 [14] and with A549 [15] was Active. In addition, the selectivity ratio in data set [4] and in data set [7] was greater than 2.2 throughout. This molecule came in with an IC50 at 72 h in [9] greater than 50 µM.

Regarding `Oc1ccc(Cl)cc1-c1cc(/C=C/c2ccc(Cl)s2)nn1-c1ccccc1`, the half-maximal inhibitory concentration (IC50) in the data set with MCF7 [1] is 8.7 µM; in the data set with A549 [5], 13.3 µM; with HT-1080 [8] it was 13.5 µM; in the data set on SW-620 [12], 10.4 µM; in the data set on EJ-28 [13], 10.1 µM. The “Ratio IC50” value in data set [2], in data set [6] and in [16] was 1.4 in each case. The result in the data set on EJ-28 [3], in the data set with HT-1080 [10], in the data set with MCF7 [11], in the data set with SW-620 [14] and in the data set on A549 [15] was Active. In addition, the selectivity ratio in data set [4] and in data set [7] was 1.4 throughout. The molecule also gave an IC50 at 72 h in [9] of 19.2 µM.

Take `Oc1ccc(Cl)cc1-c1cc(/C=C/c2cccc(Cl)c2)nn1-c1ccccc1`: the IC50 was 8.1 µM in the data set on MCF7 [1]; 13.3 µM in the data set on A549 [5]; 12.4 µM with HT-1080 [8]; 8.8 µM with SW-620 [12]; 3.7 µM in the data set with EJ-28 [13]. The “Ratio IC50” value in data set [2], in [6] and in data set [16] was 1.2 each time. For the same molecule, the result with EJ-28 [3], with HT-1080 [10], with MCF7 [11], with SW-620 [14] and in the data set on A549 [15] was Active. The selectivity ratio in data set [4] and in data set [7] was 1.2 throughout. The molecule also registered a half-inhibitory concentration (IC50) at 72 h in [9] of 16.2 µM.

`Oc1ccccc1-c1cc(/C=C/c2cccs2)nn1-c1ccccc1`: the IC50 with MCF7 [1] worked out at 9.1 µM; in the data set with A549 [5], 18.5 µM; with HT-1080 [8], 12.8 µM; in the data set on SW-620 [12] it was 11.9 µM; in the data set on EJ-28 [13], 14.3 µM. Besides, the “Ratio IC50” value in [2], in data set [6] and in [16] was 1 throughout. In addition, the outcome with EJ-28 [3], in the data set with HT-1080 [10], in the data set on MCF7 [11], in the data set on SW-620 [14] and in the data set on A549 [15] was Active. Besides, the selectivity ratio in [4] and in data set [7] was 1 each time. In data set [9], the IC50 at 72 h is 19.2 µM.

In the case of `Oc1ccc(Cl)cc1-c1cc(/C=C/c2cccs2)nn1-c1ccccc1`, the half-maximal inhibitory concentration (IC50) in the data set with MCF7 [1] is 5.5 µM; in the data set on A549 [5] it was 17.1 µM; with HT-1080 [8], 19.6 µM; in the data set on SW-620 [12] it was 19 µM; in the data set with EJ-28 [13], 11.6 µM. The “Ratio IC50” value in data set [2], in [6] and in data set [16] was 2 throughout. Besides, the outcome in the data set with EJ-28 [3], in the data set with HT-1080 [10], in the data set with MCF7 [11], with SW-620 [14] and in the data set on A549 [15] was Active. The selectivity ratio in [4] and in data set [7] was 2 each time. Further, inhibition in data set [9] was half-maximal at 39.6 µM (IC50 at 72 h).

With `COc1cccc(/C=C/c2cc(-c3cc(Cl)ccc3O)n(-c3ccccc3)n2)c1`, the concentration for half-maximal inhibition (IC50) in the data set on MCF7 [1] is 10.9 µM; in the data set on A549 [5], 16.5 µM; with HT-1080 [8] it was 17.4 µM; in the data set on SW-620 [12], 19.5 µM; in the data set on EJ-28 [13] it was 8.6 µM. The “Ratio IC50” value in [2], in [6] and in data set [16] was 2.3 throughout. The result in the data set with EJ-28 [3], with HT-1080 [10], in the data set on MCF7 [11], with SW-620 [14] and in the data set with A549 [15] was Active. For the same molecule, the selectivity ratio in data set [4] and in data set [7] was 2.3 each time. In [9], this molecule registered a concentration for half-maximal inhibition (IC50) at 72 h of 45.6 µM.

On to `O=[N+]([O-])c1cccc(/C=C/c2cc(-c3ccccc3O)n(-c3ccccc3)n2)c1`, for which the half-maximal inhibitory concentration (IC50) turned out to be 15 µM with MCF7 [1]; 21.7 µM in the data set on A549 [5]; 16.5 µM with HT-1080 [8]; 9.7 µM in the data set with SW-620 [12]; 7.4 µM in the data set on EJ-28 [13]. For the same molecule, the “Ratio IC50” value in [2], in data set [6] and in [16] was 2 each time. Further, the outcome in the data set with EJ-28 [3], in the data set with HT-1080 [10], in the data set on MCF7 [11], in the data set on SW-620 [14] and with A549 [15] was Active. The selectivity ratio in data set [4] and in data set [7] was 2 throughout. In addition, the IC50 at 72 h in [9] stood at 42.9 µM.

As for `Oc1ccccc1-c1cc(/C=C/c2ccc(Cl)cc2)nn1-c1ccccc1`, the IC50 in the data set with MCF7 [1] was 15.2 µM; in the data set on A549 [5], 26.3 µM; in the data set with HT-1080 [8], 15.8 µM; in the data set on SW-620 [12], 16.5 µM; with EJ-28 [13] it was 13.4 µM. Moreover, the “Ratio IC50” value in data set [2], in data set [6] and in data set [16] was 1.5 in each case. Besides, the result with EJ-28 [3], with HT-1080 [10], with MCF7 [11], in the data set with SW-620 [14] and with A549 [15] was Active. Besides, the selectivity ratio in data set [4] and in [7] was 1.5 each time. This molecule had an IC50 at 72 h in data set [9] of 40.5 µM.

With `COc1ccc(/C=C/c2cc(-c3cc(Cl)ccc3O)n(-c3ccccc3)n2)cc1OC`, the half-inhibitory concentration (IC50) worked out at 9.6 µM in the data set on MCF7 [1]; 15.3 µM in the data set on A549 [5]; 14.5 µM in the data set on HT-1080 [8]; 16.1 µM in the data set on SW-620 [12]; 17.6 µM in the data set on EJ-28 [13]. Moreover, the “Ratio IC50” value in data set [2], in [6] and in data set [16] was 2.5 throughout. In addition, the outcome in the data set on EJ-28 [3], with HT-1080 [10], with MCF7 [11], in the data set with SW-620 [14] and with A549 [15] was Active. In addition, the selectivity ratio in [4] and in data set [7] was 2.5 each time. The same molecule had a half-maximal inhibitory concentration (IC50) at 72 h in data set [9] of 39.9 µM.

`COc1cccc(/C=C/c2cc(-c3ccccc3O)n(-c3ccccc3)n2)c1`: the half-inhibitory concentration (IC50) in the data set with MCF7 [1] stood at 16.2 µM; in the data set with A549 [5] it was 22.8 µM; in the data set with HT-1080 [8], 20 µM; in the data set with SW-620 [12], 22.1 µM; with EJ-28 [13], 14.3 µM. For the same molecule, the “Ratio IC50” value in [2], in data set [6] and in data set [16] was greater than 2.2 throughout. In addition, the outcome with EJ-28 [3], in the data set with HT-1080 [10], in the data set on MCF7 [11], with SW-620 [14] and in the data set on A549 [15] was Active. In addition, the selectivity ratio in [4] and in [7] was greater than 2.2 each time. The same molecule showed a 50% inhibitory concentration (IC50) at 72 h in [9] greater than 50 µM.

(Values after ChEMBL document CHEMBL5360581, “Discovery of a novel dual functional phenylpyrazole-styryl hybrid that induces apoptotic and autophagic cell death in bladder cancer cells” (Eur J Med Chem, 2023).)
